Results reported in patent US20220305093A1, “NK-LYSIN PEPTIDE COMPOSITIONS AND METHODS FOR THEIR USE AS ANTIMICROBIAL/ANTIVIRAL AGENTS” (priority 2021, published 2022).
Values after ≈ are worked out from the molar mass of the structure shown. Residues, ends and D or L forms follow the SMILES beside them.

How the values were obtained:
[1] = test system: Escherichia coli (ATCC 11775); test: microbe, parasite or virus in culture; settings: ATCC 11775
Experimental: (§1) The minimum inhibitory concentration (MIC) is defined as the lowest concentration of an antimicrobial ingredient or agent that is bacteriostatic (prevents the visible growth of bacteria).
(§2) Mueller Hinton broth (MHB) comprising 0.01% v/v acetic acid (Sigma Aldrich; St Louis, Mo.) and 0.2% w/v bovine serum albumin (Sigma Aldrich). Equal concentrations of bacteria were plated in wells of standard tissue culture microplates at a density of 0.5×10^8 CFU ml^−1 in MHB per well. Treatments were equivalent volumes (50 μl) of NK-lysin peptides in concentrations of 0 to 150 μg/ml, or no NK-lysin peptides for control wells. The treated plates were incubated at […] and optical densities were determined for each well at 0 minutes, 1, 2 and 3 hours and after an overnight incubation.

[2] = test system: Klebsiella oxytoca (ATCC 49131); test: microbe, parasite or virus in culture; settings: ATCC 49131
Experimental: as §1, §2

[3] = test system: Klebsiella pneumoniae (patient isolate); test: microbe, parasite or virus in culture; settings: patient isolate
Experimental: as §1, §2

[4] = test system: Pseudomonas aeruginosa (ATCC 9027); test: microbe, parasite or virus in culture; settings: ATCC 9027
Experimental: as §1, §2

[5] = test system: Salmonella typhimurium (ATCC 14028); test: microbe, parasite or virus in culture; settings: S.typhimrium ATCC 14028
Experimental: as §1, §2

[6] = test system: Shigella sonnei (ATCC 25931); test: microbe, parasite or virus in culture; settings: Sh. sonnei ATCC 25931
Experimental: as §1, §2

[7] = test system: Streptococcus mutans (isolate); test: microbe, parasite or virus in culture; settings: isolate
Experimental: as §1, §2

[8] = test system: Streptococcus pyogenes (ATCC 19615); test: microbe, parasite or virus in culture; settings: ATCC 19615
Experimental: as §1, §2

[9] = test system: S. typhimurium (ATCC 14028); test: Colony count assays; assay type: cell-based, Salmonella typhimurium; settings: 30 μg/ml
Experimental: Antimicrobial activity of NK-lysin peptides was assayed in cultures of S. typhimurium (ATCC 14028). The bacteria were maintained in tryptic soy broth at 3TC and were grown to the mid-logarithmic phase prior to testing. To determine the activity of NK-lysin peptides, colony count assays were carried out. Bacteria were pelleted and then re-suspended in a 10 mM sodium phosphate buffer pH 7.0 and then diluted to a density of (2×10^6 CFU ml^−1 in MHB. 50 μl of NK-lysin peptide were combined with an equal volume of bacterial culture and incubated at room temperature for 3 hours. A 1 μl sample of each culture was then diluted by 1000 (in 1 ml) and spread over MH agar plates. Colonies were counted after 24 hours at room temperature to determine the bacteria that survived.

[10] = test system: Salmonella typhimurium (ATCC 14028); test: Growth kinetic activity at 2×MIC; assay type: cell-based
Experimental: (§3) The kinetic killing abilities of NK-lysin peptides were gauged in accordance with the Clinical Laboratory and Standard Institute (CLSI) broth micro-dilution technique presented by Wiegand and Hancock (2008). Mueller Hinton broth comprising 0.01% v/v acetic acid was prepared with 0.2% w/v bovine serum albumin, as above. […] The plate was then incubated at room temperature. […] A distinct triplicate was used to repeat the kinetic potential of NK-lysin peptides thrice.

[11] = test system: Streptococcus mutans (isolate); test: Growth kinetic activity at 2×MIC; assay type: cell-based; settings: time dependent, FIG. 3B
Experimental: as §3

[12] = test system: S. typhimurium (ATCC 14028); assay type: cell-based, Salmonella typhimurium; settings: ATCC 14028
Experimental: Screening of NK-lysin peptides was carried out against gram-negative S. typhimurium (ATCC 14028) bacteria. Overnight cultivation of the bacteria was carried out at a temperature of 3TC. A bacterial suspension was created in 10 mM sodium phosphate buffer pH 7.0 having a density of (2×10^6 CFU ml^−1) and plated on Muller-Hinton (MH) agar plates to inoculate. After the plates were dry, antibiotics discs of various concentrations (0 to 150 μg/ml) of antibiotic or NK-lysin peptides were applied to the surface of the inoculated plates. The plates were cultured overnight at 3TC and observed for restriction of growth by determining the diameter of bacterial-free zones surrounding each disc. Ceftazidime antibiotic was employed as a positive control.

[13] = test system: Salmonella typhimurium (ATCC 14028); test: Leakage of intracellular contents (DNA/RNA release, OD 260 nm); assay type: cell-based; settings: 15 min
Experimental: The protocol of Carson et al. (Antimicrob Agents Chemother. 2002 June; 46(60:1914-20) was used with some changes to perform the assay for determining the loss of DNA/RNA. In short, 50 μl of bacteria was combined with the same volume of NK-lysin peptides at 2×MIC and then incubated at room temperature. Samples were harvested at 15, 30 and 60 minutes, diluted 1:10 and then filtered across 0.22 μm pores (Merck; Tullagreen, Ireland). The measurement of the O.D 260 nm of the filtrates was carried out over NanoDrop plate (Greiner Bio-One GmbH; Frickenhausen, Germany). The results were presented as a ratio to the original OD260 nm. 16S rRNA Amplification Two universal primer sets 341F and 534 R were used to amplify 500 bp of 16s rRNA gene of Salmonella typhimurium. The forward primer had the following sequence: 5′-CCT ACG GGA GGC AGC AG-3′ (SEQ ID NO:04), whereas the reverse primer had the following: 5′-ATT ACC GCG GCT GCT GGC-3′ (SEQ ID NO:05). PCR amplification reactions were carried out in 50 μl of overall volume with a reaction mixture comprising 50 ng template DNA, 10 pmol each primer, 0.25 U Taq DNA polymerase, 10 mM Tris-HCl (pH.9.0), […] dNTPs mix, 30 mM KCl, 1.5 mM MgCl2 in sterile nuclease-free water. […]

Rotavirus (strain SA-11) = assay type: cell-based
Experimental: Rotavirus (strain SA-11) was activated with 10 μg/mL trypsin before propagation on MA-104 cells derived from kidney cells of African […] monkey. MA-104 cells were cultivated in tissue culture flasks in the presence of less than 5% CO2 at 37° C. in Dulbecco's Minimal Essential Medium (DMEM) (Sigma-Aldrich) The DMEM included 1% antibiotic antimycotic solution and 10% heat inactivated fetal bovine serum (A5955, Sigma-Aldrich). Centrifugation of rotavirus was performed at 300×g for 5 mins in order to purify by removal of cell debris. The supernatant was utilized as a stock suspension of virus after filtration through 0.2 μm membrane. The stock virus contained 10^6-10^7 TCID50 per mL and was stored at −80° C. for future use.
In order to activate infectivity, rotavirus was placed in a solution of 10 μg/mL trypsin at 37° C. for 30 min. A 100 μl aliquot of the activated rotavirus sa-11 was mixed with and equal volume of 80 μg/ml NK-lysin peptides for a final rotavirus concentration of 1×10^6 TCID50/ml. The rotavirus and NK-lysin peptide mixture was first incubated for at 37° C. for 1 hour. Serial dilutions of rotavirus and rotavirus+peptide mixtures were prepared. Aliquots 100 μl of the 10-fold serial dilutions were then added to 96-well tissue culture plates comprising monolayers of MA-104 cells at a density of approximately 5.0×10^4 cells per well. Eight wells were used for each sample to make sure sufficient assay precision was achieved. The microplates were incubated for 5 days at 37° C. under 5% CO2 atmosphere. During the 5-day incubation, cells were monitored daily under a microscope to check for a cytopathic effect (CPE). A tissue culture infectious dose (TCID) was the infectious dose/mL of tissue culture equal to 50 percent of wells showing CPE at a specific dilution and was expressed as the TCID50 for that dilution. The highest dilutions in which 50% or higher wells were read as the TCID50.

[14] = test system: gram-positive and gram-negative bacteria; test: organism not typed; settings: in vitro, some bacterial strains
Text: The gram-positive bacterial strains utilized were Streptococcus pyogenes (ATCC 19615) and Streptococcus mutans (isolate obtained from a patient at King Abdul-Aziz hospital). The gram-negative bacterial strains used included Salmonella typhimurium (ATCC 14028), Escherichia coli (ATCC 11775), Pseudomonas aeruginosa (ATCC 9027), Klebsiella oxytoca (ATCC 49131), Shigella sonnei (ATCC 25931), and Klebsiella pneumoniae (patient isolate). Tryptic soy broth (TSB) was used to grow all bacterial strain overnight, after which the bacteria were washed using phosphate-buffered saline (PBS, NaCl 8 g/L, KCl 0.2 g/L, Na2HPO4 1.4 g/L, KH2PO4 0.24 g/L), and then diluted in the same buffer with 1/1000 TSB to an OD600 nm of 0.08-0.1 (1×10^8) colony-forming units (CFU)/ml, which was determined after performing retrospective plate counts on tryptic soy agar. Unless otherwise noted, the experiments in the following examples employed this inoculum preparation apart from when minimum inhibitory and bactericidal concentrations were determined, which employed cells in Muller Hinton broth. […]
Mueller Hinton broth (MHB) comprising 0.01% v/v acetic acid (Sigma Aldrich; St Louis, Mo.) and 0.2% w/v bovine serum albumin (Sigma Aldrich). […] The treated plates were incubated at […] and optical densities were determined for each well at 0 minutes, 1, 2 and 3 hours and after an overnight incubation. […]

[15] = 80 μg/ml peptide, Rotavirus (SA-11)

## CC[C@H](C)[C@H](NC(=O)[C@H](C)NC(=O)[C@H](CC(=O)O)NC(=O)[C@H](CCC(=O)O)NC(=O)[C@H](CC(=O)O)NC(=O)[C@@H]1CCCN1)C(=O)N[C@@H](CC(N)=O)C(=O)N[C@@H](CC(N)=O)C(=O)N[C@@H](C)C(=O)N[C@@H](CC(C)C)C(=O)N[C@@H](CC(N)=O)C(=O)N[C@@H](CCCCN)C(=O)N[C@H](C(=O)N[C@@H](CS)C(=O)N[C@@H](CO)C(=O)N[C@H](C(=O)NCC(=O)N[C@@H](CCCNC(=N)N)C(=O)N[C@@H](CCCNC(=N)N)C(=O)N[C@@H](CCC(N)=O)C(=O)N[C@@H](CCCNC(=N)N)C(=O)N[C@@H](CO)C(=O)N[C@H](C(=O)N[C@@H](CS)C(=O)N[C@@H](CCCCN)C(=O)N[C@@H](CCC(N)=O)C(=O)N[C@@H](CC(C)C)C(=O)N[C@@H](CC(C)C)C(=O)N[C@@H](CCCCN)C(=O)N[C@@H](CCCCN)C(=O)O)[C@@H](C)CC)[C@@H](C)O)C(C)C [Chicken NK-lysin] (H-PDEDAINNALNKVCSTGRRQRSICKQLLKK-OH; N-terminus and C-terminus assumed)
[1]
  MBC: 25 ± 0.010 µg/mL (≈ 7.35 µM)
  MIC: 15 ± 0.012 µg/mL (≈ 4.41 µM)
[2]
  MBC: 25 ± 0.10 µg/mL (≈ 7.35 µM)
  MIC: 15 ± 0.015 µg/mL (≈ 4.41 µM)
[3]
  MBC: 25 ± 0.010 µg/mL (≈ 7.35 µM)
  MIC: 15 ± 0.030 µg/mL (≈ 4.41 µM)
[4]
  MBC: 25 ± 0.013 µg/mL (≈ 7.35 µM)
  MIC: 15 ± 0.012 µg/mL (≈ 4.41 µM)
[5]
  MBC: 30 ± 0.10 µg/mL (≈ 8.82 µM)
  MIC: 15 ± 0.098 µg/mL (≈ 4.41 µM)
[6]
  MIC: 15 ± 0.033 µg/mL (≈ 4.41 µM)
[7]
  MBC: 15 ± 0.00 µg/mL (≈ 4.41 µM)
  MIC: 15 ± 0.00 µg/mL (≈ 4.41 µM)
[8]
  MBC: 25 ± 0.010 µg/mL (≈ 7.35 µM)
  MIC: 15 ± 0.00 µg/mL (≈ 4.41 µM)
[9]
  decrease of colony number: approximately 10 fold
[10]; 2×MIC, after 4 hr of incubation
  growth inhibition: Complete inhibition
[10]; 1 hr after treatment
  lethality: high lethality
[11]
  kinetic activity compared between peptides: more potent activity than bovine or human NK-lysin peptides
[12]
  clear zone diameter: 23 mm
[13]
  release of DNA/RNA (OD 260 nm), words: higher activity
Rotavirus (strain SA-11); [15]
  Log10TCID50/ml: 5.61
  TCID50/ml: 4.11 × 10^5 TCID50/ml
Rotavirus (strain SA-11); 80 μg/ml peptide, versus initial titre
  % reduction: 79%
Rotavirus (strain SA-11); Rotavirus (strain SA-11)
  inhibition of infection / infectivity: 80%
[14]
  time to nearly complete killing: ≤ 3 h
